Data: a melting point compilation (Tetko et al.; mined from patent text by program, amines drawn as free bases though some values may be those of a salt)

| Compound | melting point [°C] |
| --- | --- |
| OCCCCc1ccc(N2CCOCC2)cc1 | 51 to 52 |
| O=C(c1ccccc1)N1CCC(Nc2ccccc2Oc2ccc(Cl)cc2Cl)CC1 | 55 to 58 |
| CC(=O)c1c(O)ccc2[nH]ncc12 | 188 to 191 |
| O=C(O)C1CC2CCCCC2CN1C(S)c1nn[nH]n1 (stereo unspecified) | 165 to 172 |
| CCOCc1cc2cc(Cl)ccc2oc1=Nc1ccccc1 | 58 to 59 |
| CCCC(=O)C1c2cccc(OC(=O)C(C)(C)C)c2C(=O)c2c(OC(=O)C(C)(C)C)cccc21 | 120 |
| O=C1Nc2cccc(Cl)c2C(=O)N2C[C@H](O)C[C@@H]12 | 284 to 287 |
| CNc1cccc(OCc2ccccc2)c1N | 79 to 81 |
| CC(=O)OCC1OC(C2=NNC(N)(c3ccc(Cl)c(Cl)c3)O2)C(OC(C)=O)C(OC(C)=O)C1OC(C)=O (stereo unspecified) | 180 to 181 |
| Cc1c(-c2ccccc2)n[nH]c1OCN1CCCC1 | 88 |
| CCOC(=O)C1=C(C)N(C)C(C)=C(C(=O)OCC)C1c1ccc(OC(C)(C)C(=O)OCC)cc1 | 88 |
| COC(=O)c1n[nH]c(=O)c2ccc(Cl)cc12 | 222 to 223 |
| c1ccc2c(c1)NCc1nnnn1-2 | 149 to 151 |
| COc1cc(OC)c2c(=O)c(OC)c(-c3ccc(O)c(OC)c3)oc2c1 | 221 to 223 |
| CCC(CC)CNC(=O)c1ccc(CN2C(=O)C3(COc4cc5c(cc43)CCO5)c3ccccc32)cc1 (stereo unspecified) | 211 to 213 |
| O=C(COc1cc(Cl)c(Cl)c([N+](=O)[O-])c1)c1ccccc1 | 118 to 126 |
| O=C1CC(C(=O)OCc2ccccc2)C(=O)C(Cc2ccccc2)N1 (stereo unspecified) | 119 to 120 |
| CC1CCc2cc([N+](=O)[O-])cnc2C1 (stereo unspecified) | 55 to 56 |
| CC(C)n1nc(-c2c(Oc3ccccc3)nc(N)nc2-c2ccccc2)ccc1=O | 218 to 221 |
| COC(=O)[C@@H](Cc1ccccc1)Oc1c(Br)cc(-c2c3ccccc3c(Br)c3sc(C)c(C)c23)cc1C1CCCC1 | 167 to 168 |
| COc1ccc(-c2ccc(CCNC(=O)c3cc(Cl)ccc3OC)cc2S(N)(=O)=O)cc1 | 205 to 208 |
| CC1=C(C(=O)NC(C)(C)C)C(c2ccccc2Cl)C(C(=O)O)=C(COCCn2c(C)nc3ccccc32)N1 (stereo unspecified) | 187 to 188 |
| COC(=O)c1cc(-c2nc(COc3ccc(CO)cc3OC)c(C)o2)ccc1OS(C)(=O)=O | 126 to 127 |
| CN(C)CCn1c(=O)c2cc([N+](=O)[O-])ccc2c2cnc3cc4c(cc3c21)OCO4 | 204 to 205 |

| Compound | melting point [°C] |
| --- | --- |
| COc1cc(COc2nn(-c3ccccc3)cc2CCc2cscn2)ccc1OCc1nc(-c2ccco2)oc1C | 127 to 128 |
| ClC1=Nc2nc(C3CCCC3)n(Cc3ccccc3)c2C2=N[C@H](Cc3ccccc3)CN12 | 124 to 125 |
| COc1ccc(C(F)(F)F)cc1NC(=O)CCl | 94.7 |
| Cc1cc(C=O)cc(C=O)c1OCCCC(c1ccc(F)cc1)c1ccc(F)cc1 | 97 |
| CCS(=O)(=O)c1ccc(Oc2ccc(Cl)c(Cl)c2)nc1C#N | 150 to 151 |
| CCc1cccc(N2C(=S)SCC2(O)CC)n1 (stereo unspecified) | 84 |
| CN(CCO)c1ccnc(CSc2nc3ccccc3[nH]2)c1Cl | 132 to 135 |
| CS(=O)(=O)Nc1nc(-c2ccc(NS(C)(=O)=O)c(Sc3ccc(F)cc3F)c2)cs1 | 159 to 161 |
| O=C(C[N+](=O)[O-])c1ncn(Cc2ccccc2)c1[N+](=O)[O-] | 105 to 107 |
| COCC(=O)Nc1cccc(NC(=O)COC)c1 | 110 to 111 |
| O=C(O)CCCOc1ccc(CCNC(=O)C2Cc3ccccc3N2S(=O)(=O)c2ccc(-c3cccc(C(F)(F)F)c3)cc2)cc1 (stereo unspecified) | 70 |
| O=C1C[C@@H]2[C@@H](/C=C/C(=O)[C@@H]3OCc4ccccc4O3)[C@H](OC(=O)c3ccccc3)C[C@@H]2O1 | 129 to 130 |
| CC(C)(C)OC(=O)N[C@@]1(C(=O)OC(C)(C)C)C[C@@H](F)[C@H]2[C@H](C(=O)OC(C)(C)C)[C@H]21 | 140 to 143 |
| C=C(C)C(=O)OC1=CC(O)(C(C)=O)C(C(=O)O)C=C1 (stereo unspecified) | 153 |
| Cn1cc(-c2ccc(Br)cc2)c(=O)c(-c2cccc(C(F)(F)F)c2)c1 | 144 to 146 |
| Cc1ncnc(Cl)c1C | 45 to 47 |
| COc1ccc(N2CCOCC2)cc1NC(=S)c1nc2ccccc2[nH]1 | 236 to 237 |
| CC(=O)Nc1cc(-n2c(=O)cc(C(F)(F)F)[nH]c2=O)c(F)cc1Cl | 264 to 266 |
| COc1cc(COc2ccc3nc(NC(=O)Oc4ccccc4)cn3n2)cc(OC)c1OC | 210 to 213 |
| O=C(O)c1ccc(Oc2ccc(Oc3ccccc3)cc2)cc1 | 185 |
| O=Cc1ccccc1Oc1ccc(F)cc1[N+](=O)[O-] | 94 to 95 |
| CCCn1c(C)c(C(C)=O)c(N)c1-c1ccccc1 | 113 to 115 |
| Cc1ccc(-c2c(N)ncnc2OCCOc2ncc(Br)cn2)cc1 | 178 to 180 |
| O=C(Nc1noc2ccccc12)N1CCN(c2nc(-c3ccccc3)no2)CC1 | 215 to 216 |

| Compound | melting point [°C] |
| --- | --- |
| COc1ccc(Oc2ccc3ccccc3n2)cc1 | 96.5 to 98 |
| CSc1ncc(F)c(NCc2ccccc2F)n1 | 144 to 146 |
| C#CCNC(=O)C=C(C)N | 137 to 138 |
| CC(=O)n1ncc(=O)[nH]c1=O | 150 |
| Cc1nnc(NCCCC(C)N2CCNCC2)c2cc3ccccn3c12 (stereo unspecified) | 110 to 111 |
| Nc1cccc(C(=O)c2ccc(Oc3ccccc3)c(N)c2)c1 | 112 to 113 |
| COc1cccc(CNC(=O)c2nc3scc(COCc4ccc(C(=O)O)cc4)c3c(=O)[nH]2)c1 | 229 to 230 |
| C[C@H](N)C(=O)NC1N=C(c2ccccc2Cl)c2cc(Cl)ccc2N(C)C1=O (stereo partly specified) | 232 to 233 |
| CCOC(=O)c1cn(-c2nncs2)c2cc(F)c(F)cc2c1=O | 235 to 238 |
| CCOC(=O)c1ncn(-c2nncs2)c1S | 182 to 185 |
| O=[N+]([O-])c1cc(CCCl)ccc1O | 53 to 55 |
| COC(=O)C1=C(COCCn2c(C)nc(C)c2C)NC(C)=C(C(=O)Nc2ccccc2)C1c1ccccc1Cl (stereo unspecified) | 135 to 140 |
| CC(C)(C)c1ccc(C(=O)NN=Cc2c(O)ccc3ccccc23)cc1 | 259 to 261 |
| Cc1cccc(Nc2cc(Nc3ccc(OCC#N)cc3)ncn2)c1 | 207 to 210 |
| COc1ccc(CC(=O)N2CCN(C(=S)SC)CC2)c(OC)c1OC | 119 to 120 |
| NNC(=O)c1cn2c(nc1=O)CCC2 | 204 to 206 |
| CCC(CC)N(O)C(=O)Nc1ccc(Cc2ccc(NC(=O)N(O)C(CC)CC)c(Cl)c2)cc1Cl | 172 to 173 |
| NC(=O)CNC(=O)c1ccc(-c2cccc3cc(Cc4cccc(C(F)(F)F)c4)sc23)cc1 | 134 to 136 |
| Cc1ncsc1CNc1ccc(-n2nc(C(F)(F)F)cc2C2CC2)cc1 | 59.2 to 61.2 |
| CCC(=O)Nc1cc(C2=NCCO2)ccc1OCCCCCc1cc(C)no1 | 133 to 134 |
| CC(C)C[C@H](NC(=O)OC(C)(C)C)C(=O)N[C@H](C(=O)NN)[C@@H](C)O | 146 to 148 |
| O=c1cc(-c2ccc3nccnc3c2)oc2ncccc12 | 272 to 275 |
| COC(=O)CC(C)N=c1sc2ccccc2s1 (stereo unspecified) | 78 to 80 |
